The values below come from patent US20250304596A1, “PYRAZINE DERIVATIVES AND USES THEREOF” (FOGHORN THERAPEUTICS INC., priority 2022, published 2025).

Assay [1] has as its target T1, HiBit-BRM fusion protein (Homo sapiens, UniProt P51531).
T1 construct: expressed in transfected cells
Put plainly: HiBiT-BRM cell-based degradation assay (Nano-Glo HiBiT Lytic Detection, 24 h). To be noted: stable HeLa cell line expressing HiBiT-BRM; for DC50: read-out: BRM HiBit Degradation IC50. In a few lines: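 A stable HeLa line expressing HiBiT-BRM was treated for 24 h with compound in a 10-point, 3-fold series (30 μM final top dose). Remaining HiBiT-BRM was read by lytic LgBiT complementation luminescence. % degradation was normalised to DMSO (high control) and 2 μM reference BRM/BRG1 degrader (low control).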
(In general: With HiBiT, luminescence reflects the tagged protein that the partner subunit can reach.)

The target in assay [2] is T2, HiBit-BRG1 fusion protein (Homo sapiens, UniProt P51532).
T2 construct: expressed in transfected cells
Put plainly: HiBiT-BRG1 cell-based degradation assay (Nano-Glo HiBiT Lytic Detection, 24 h). To be noted: stable HeLa cell line expressing HiBit-BRG1 and LgBit; for Dmax: read-out: BRG1 HiBit Degradation Maximum (%); for DC50: read-out: BRMG1 HiBit Degradation IC50. The method in brief: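 HeLa cells stably expressing HiBit-BRG1 and LgBit, treated 24 h with 3-fold dilutions (10 points, duplicate, 30 μM final top dose). Luminescence read after Nano-Glo HiBiT lytic reagent; % degradation scaled between DMSO (high) and 2 μM reference BRM/BRG1 degrader (low control).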

Bounds are passed on as bounds.

T1 sequence (P51531 whole entry, the tested form may be a part): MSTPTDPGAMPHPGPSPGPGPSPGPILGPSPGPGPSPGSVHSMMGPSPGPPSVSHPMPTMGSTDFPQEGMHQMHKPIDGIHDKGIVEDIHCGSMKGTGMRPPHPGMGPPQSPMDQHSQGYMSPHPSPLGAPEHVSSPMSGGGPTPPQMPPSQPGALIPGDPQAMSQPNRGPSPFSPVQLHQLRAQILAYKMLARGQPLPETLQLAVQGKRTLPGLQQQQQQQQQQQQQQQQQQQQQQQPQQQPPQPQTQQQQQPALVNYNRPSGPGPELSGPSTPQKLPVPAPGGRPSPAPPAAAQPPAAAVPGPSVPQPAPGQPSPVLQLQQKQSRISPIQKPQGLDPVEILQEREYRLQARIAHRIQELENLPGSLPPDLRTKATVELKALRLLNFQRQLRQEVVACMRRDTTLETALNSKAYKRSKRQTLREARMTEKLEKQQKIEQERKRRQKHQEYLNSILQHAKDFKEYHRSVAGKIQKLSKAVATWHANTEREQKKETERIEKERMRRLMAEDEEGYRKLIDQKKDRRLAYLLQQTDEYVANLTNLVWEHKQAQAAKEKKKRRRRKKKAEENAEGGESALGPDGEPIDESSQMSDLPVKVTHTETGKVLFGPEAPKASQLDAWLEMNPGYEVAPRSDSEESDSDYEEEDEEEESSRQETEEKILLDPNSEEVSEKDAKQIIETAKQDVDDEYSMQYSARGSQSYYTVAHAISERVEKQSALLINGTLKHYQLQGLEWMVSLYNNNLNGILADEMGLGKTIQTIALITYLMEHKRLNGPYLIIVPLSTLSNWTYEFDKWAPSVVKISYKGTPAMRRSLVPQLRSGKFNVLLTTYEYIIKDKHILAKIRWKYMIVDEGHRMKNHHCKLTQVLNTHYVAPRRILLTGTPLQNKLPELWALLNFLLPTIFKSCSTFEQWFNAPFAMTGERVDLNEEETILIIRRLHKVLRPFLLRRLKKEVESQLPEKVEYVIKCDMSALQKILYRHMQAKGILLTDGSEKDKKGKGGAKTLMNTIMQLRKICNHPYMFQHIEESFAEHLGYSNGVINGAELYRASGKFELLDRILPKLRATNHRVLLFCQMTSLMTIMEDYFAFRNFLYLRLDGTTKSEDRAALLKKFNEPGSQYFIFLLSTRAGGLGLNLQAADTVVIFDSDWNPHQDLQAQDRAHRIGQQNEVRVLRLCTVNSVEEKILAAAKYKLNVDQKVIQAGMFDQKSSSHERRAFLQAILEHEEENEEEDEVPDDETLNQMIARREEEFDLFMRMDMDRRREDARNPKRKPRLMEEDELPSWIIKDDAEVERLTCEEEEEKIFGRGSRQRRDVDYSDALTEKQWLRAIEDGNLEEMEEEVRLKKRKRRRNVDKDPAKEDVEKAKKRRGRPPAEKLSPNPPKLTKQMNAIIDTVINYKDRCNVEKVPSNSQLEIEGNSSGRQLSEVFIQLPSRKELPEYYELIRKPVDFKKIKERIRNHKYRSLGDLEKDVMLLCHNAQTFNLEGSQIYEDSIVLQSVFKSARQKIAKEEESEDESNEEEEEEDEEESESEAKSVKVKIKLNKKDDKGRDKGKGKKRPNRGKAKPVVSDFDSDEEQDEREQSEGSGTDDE
T2 sequence (P51532 whole entry, the tested form may be a part): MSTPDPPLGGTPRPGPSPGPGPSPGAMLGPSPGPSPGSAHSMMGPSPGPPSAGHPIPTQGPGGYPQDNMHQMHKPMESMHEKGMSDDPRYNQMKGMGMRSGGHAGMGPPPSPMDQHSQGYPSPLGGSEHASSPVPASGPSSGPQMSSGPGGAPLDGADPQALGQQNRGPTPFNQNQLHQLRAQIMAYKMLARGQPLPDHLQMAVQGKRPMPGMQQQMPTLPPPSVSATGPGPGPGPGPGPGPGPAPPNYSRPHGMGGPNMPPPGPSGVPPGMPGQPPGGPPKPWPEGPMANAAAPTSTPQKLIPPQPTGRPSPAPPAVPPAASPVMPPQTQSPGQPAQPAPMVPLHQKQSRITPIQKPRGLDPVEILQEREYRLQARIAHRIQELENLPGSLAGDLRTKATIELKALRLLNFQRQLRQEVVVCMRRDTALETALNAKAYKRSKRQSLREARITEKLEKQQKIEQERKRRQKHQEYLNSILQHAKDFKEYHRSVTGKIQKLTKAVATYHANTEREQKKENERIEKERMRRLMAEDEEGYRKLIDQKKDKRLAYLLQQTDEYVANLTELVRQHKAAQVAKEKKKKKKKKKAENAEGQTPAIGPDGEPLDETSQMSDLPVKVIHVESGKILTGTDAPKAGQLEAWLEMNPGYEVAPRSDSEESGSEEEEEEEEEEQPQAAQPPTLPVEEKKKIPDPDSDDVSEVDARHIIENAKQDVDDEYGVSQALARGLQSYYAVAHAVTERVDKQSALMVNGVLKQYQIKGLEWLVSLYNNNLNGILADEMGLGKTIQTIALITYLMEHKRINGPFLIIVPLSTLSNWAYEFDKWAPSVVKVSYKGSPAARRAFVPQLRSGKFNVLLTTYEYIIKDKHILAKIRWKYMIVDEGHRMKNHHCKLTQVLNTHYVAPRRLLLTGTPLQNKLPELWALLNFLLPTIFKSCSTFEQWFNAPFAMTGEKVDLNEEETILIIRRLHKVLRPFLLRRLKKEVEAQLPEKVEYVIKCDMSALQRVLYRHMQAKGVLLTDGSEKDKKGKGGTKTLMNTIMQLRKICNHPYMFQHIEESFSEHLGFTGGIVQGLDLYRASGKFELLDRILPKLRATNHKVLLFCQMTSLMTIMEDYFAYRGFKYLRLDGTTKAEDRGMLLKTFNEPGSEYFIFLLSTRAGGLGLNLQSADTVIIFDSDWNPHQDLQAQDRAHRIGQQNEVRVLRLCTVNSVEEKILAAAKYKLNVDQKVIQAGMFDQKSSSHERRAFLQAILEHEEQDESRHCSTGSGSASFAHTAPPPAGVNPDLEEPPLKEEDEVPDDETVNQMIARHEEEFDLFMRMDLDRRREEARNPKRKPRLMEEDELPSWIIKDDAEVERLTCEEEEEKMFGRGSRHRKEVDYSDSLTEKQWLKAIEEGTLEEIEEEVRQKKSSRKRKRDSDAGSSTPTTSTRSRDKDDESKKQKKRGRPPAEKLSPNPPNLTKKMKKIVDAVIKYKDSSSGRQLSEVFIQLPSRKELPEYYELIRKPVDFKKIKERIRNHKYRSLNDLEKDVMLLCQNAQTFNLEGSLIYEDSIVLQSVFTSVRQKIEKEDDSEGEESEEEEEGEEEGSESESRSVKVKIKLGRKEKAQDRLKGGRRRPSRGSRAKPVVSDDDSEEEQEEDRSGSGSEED

Regarding `Cc1ncsc1-c1ccc([C@H](C)NC(=O)[C@@H]2C[C@@H](O)CN2C(=O)[C@@H](c2cc(Oc3ccnc(N4CCC(c5sc6nnc(-c7ccccc7O)cc6c5C)CC4)n3)no2)C(C)C)cc1` (single isomer, unassigned) [Compound 62], in assay [1], the “BRM HiBit Degradation Maximum (%)” value is listed as “C (“C” indicates maximum degradation <50%)” and the DC50 is above 1000 nM. In assay [2], the Dmax is below 50% and the DC50 is above 1000 nM.
Take `Cc1ncsc1-c1ccc([C@H](C)NC(=O)[C@@H]2C[C@@H](O)CN2C(=O)[C@@H](c2cc(-c3cnc(N4CCC(O)(c5sc6nnc(-c7ccccc7O)cc6c5C)CC4)nc3)no2)C(C)C)cc1` [Compound 52, (2S,4R)-4-hydroxy-1-((R)-2-(3-(2-(4-hydroxy-4-(3-(2-hydroxyphenyl)-5-methylthieno[2,3-c]pyridazin-6-yl)piperidin-1-yl)pyrimidin-5-yl)isoxazol-5-yl)-3-methylbutanoyl)-N-((S)-1-(4-(4-methylthiazol-5-yl)phenyl)ethyl)pyrrolidine-2-carboxamide]: in assay [1], the “BRM HiBit Degradation Maximum (%)” value is “B (“B” indicates maximum degradation ≥50%)” and the DC50 is above 10 nM. Moreover, in assay [2], the Dmax was below 50% and the DC50 is above 1000 nM.
For `Cc1ncsc1-c1ccc([C@H](C)NC(=O)[C@@H]2C[C@@H](O)CN2C(=O)[C@@H](c2cc(-c3ccc(N4CCC(c5sc6nnc(-c7ccccc7O)cc6c5C)CC4)nc3)no2)C(C)C)cc1` [Compound 59, (2S,4R)-4-hydroxy-1-((R)-2-(3-(6-(4-(3-(2-hydroxyphenyl)-5-methylthieno[2,3-c]pyridazin-6-yl)piperidin-1-yl)pyridin-3-yl)isoxazol-5-yl)-3-methylbutanoyl)-N-((S)-1-(4-(4-methylthiazol-5-yl)phenyl)ethyl)pyrrolidine-2-carboxamide], in assay [1], the “BRM HiBit Degradation Maximum (%)” value is reported as “A (“A” indicates maximum degradation ≥75%)” and the DC50 is below 10 nM. Also, in assay [2], the Dmax was below 50% and the DC50 is above 1000 nM.
For `Cc1ncsc1-c1ccc([C@H](C)NC(=O)[C@@H]2C[C@@H](O)CN2C(=O)[C@@H](c2cc(-c3ccc(N4CCC(c5sc6nnc(-c7ccccc7O)cc6c5C)CC4)cn3)no2)C(C)C)cc1` [Compound 34, (2S,4R)-4-hydroxy-1-((R)-2-(3-(5-(4-(3-(2-hydroxyphenyl)-5-methylthieno[2,3-c]pyridazin-6-yl)piperidin-1-yl)pyridin-2-yl)isoxazol-5-yl)-3-methylbutanoyl)-N-((S)-1-(4-(4-methylthiazol-5-yl)phenyl)ethyl)pyrrolidine-2-carboxamide] the same measures were “A (“A” indicates maximum degradation ≥75%)”, below 10 nM, below 50% and above 1000 nM.
On the same counts, the results for `Cc1ncsc1-c1ccc([C@H](C)NC(=O)[C@@H]2C[C@@H](O)CN2C(=O)[C@@H](c2cc(N3CCC4(CC[C@@H](c5sc6nnc(-c7ccccc7O)cc6c5C)C4)CC3)no2)C(C)C)cc1` [Compound 77, (2S,4R)-4-hydroxy-1-((R)-2-(3-((R)-2-(3-(2-hydroxyphenyl)-5-methylthieno[2,3-c]pyridazin-6-yl)-8-azaspiro[4.5]decan-8-yl)isoxazol-5-yl)-3-methylbutanoyl)-N-((S)-1-(4-(4-methylthiazol-5-yl)phenyl)ethyl)pyrrolidine-2-carboxamide] are “A (“A” indicates maximum degradation ≥75%)”, below 10 nM, above 50% and above 100 nM.
